In PubChem BioAssay AID493086 (The Scripps Research Institute Molecular Screening Center, 2011):
The source made the active and inactive calls.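 How the source made its calls: active means IC50 at or below 10 µM; inactive means IC50 above 10 µM.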

Molecular target: Induced myeloid leukemia cell differentiation protein Mcl-1 (Homo sapiens) (UniProt Q07820)
Assay: MCL1 binding to BIM-BH3 peptide, inhibitors, late-stage follow-up, biochemical, fluorescence polarization, assay provider data, powder samples (AID 493086)
Conditions: GST-MCL1 / FITC-BIM-BH3 fluorescence polarization

Sequence of Induced myeloid leukemia cell differentiation protein Mcl-1 (Homo sapiens) (Q07820 whole entry, looked up): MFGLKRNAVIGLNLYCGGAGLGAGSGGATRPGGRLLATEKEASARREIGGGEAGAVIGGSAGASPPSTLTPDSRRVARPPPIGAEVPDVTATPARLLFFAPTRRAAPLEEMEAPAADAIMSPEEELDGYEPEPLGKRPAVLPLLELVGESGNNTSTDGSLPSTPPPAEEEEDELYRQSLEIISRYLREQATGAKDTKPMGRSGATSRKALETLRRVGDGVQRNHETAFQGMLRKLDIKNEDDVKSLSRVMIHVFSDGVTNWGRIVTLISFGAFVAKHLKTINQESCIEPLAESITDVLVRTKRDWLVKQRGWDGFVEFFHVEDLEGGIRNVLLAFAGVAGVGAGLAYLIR

| Structure (SMILES) | IC50 |
| --- | --- |
| COc1cccc(NC(=O)CN(C)C(=O)c2cc(-c3ccco3)nc3ccccc23)c1 | > 20 µM (inactive) |
| Cc1ccc(-c2cc(C(=O)Nc3cccc(S(=O)(=O)N(C)C)c3)c3ccccc3n2)o1 | > 20 µM (inactive) |
| COc1ccc(Cc2nnc(NC(=O)Cc3sc(=S)[nH]c3C)s2)cc1OC | > 20 µM (inactive) |
| Cc1ccc(-c2cc(C(=O)NCC(c3ccccc3)N(C)C)c3ccccc3n2)o1 (configuration not stated) | > 20 µM (inactive) |
| Cc1ccc(-c2cc(C(=O)N(C)CC(=O)Nc3ccccc3Br)c3ccccc3n2)o1 | > 20 µM (inactive) |
| COCCCN(C(=O)c1cc(-c2ccco2)nc2ccccc12)c1c(N)n(Cc2ccccc2)c(=O)[nH]c1=O | > 20 µM (inactive) |
| O=C(Nc1ccc(F)cc1F)c1cc(-c2ccco2)nc2ccccc12 | > 20 µM (inactive) |
| COc1ccc(NC(=O)c2cc(-c3ccco3)nc3ccccc23)cc1 | > 20 µM (inactive) |
| O=C(Nc1cccc(F)c1)c1cc(-c2ccco2)nc2ccccc12 | > 20 µM (inactive) |
| CC1CCCN(C(=O)c2cc(-c3ccco3)nc3ccccc23)C1 (configuration not stated) | > 20 µM (inactive) |
| COC(=O)C1CCN(C(=O)c2cc(-c3ccco3)nc3ccccc23)CC1 | 7.3 µM |
| O=C(NC1CCC(O)CC1)c1cc(-c2ccco2)nc2ccccc12 (configuration not stated) | inactive |
